Assay results published in paper PMC2861369 (Current pharmaceutical biotechnology, 2009).

Target: T1, EH (recombinant mouse sEH) (Mus musculus, UniProt P34914)
T1 sequence (P34914 1-554): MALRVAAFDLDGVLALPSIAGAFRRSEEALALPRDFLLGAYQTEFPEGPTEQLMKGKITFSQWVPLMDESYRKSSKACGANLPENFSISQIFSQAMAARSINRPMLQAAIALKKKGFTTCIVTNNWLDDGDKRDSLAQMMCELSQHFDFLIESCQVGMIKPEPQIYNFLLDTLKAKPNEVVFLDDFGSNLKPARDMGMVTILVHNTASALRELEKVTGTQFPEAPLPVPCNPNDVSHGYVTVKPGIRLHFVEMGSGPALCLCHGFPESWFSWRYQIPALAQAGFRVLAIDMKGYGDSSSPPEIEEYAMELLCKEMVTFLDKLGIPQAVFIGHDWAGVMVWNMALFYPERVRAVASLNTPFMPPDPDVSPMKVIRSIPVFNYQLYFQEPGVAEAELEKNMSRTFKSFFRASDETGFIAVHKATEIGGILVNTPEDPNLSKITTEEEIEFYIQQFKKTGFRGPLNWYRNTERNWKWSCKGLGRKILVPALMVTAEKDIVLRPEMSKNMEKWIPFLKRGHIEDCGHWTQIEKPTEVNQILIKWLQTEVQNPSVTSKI
Assay: Effect of EH on the fluorescence of naphthyl derivatives
Assay type: binding
Conditions: ex 330 nm, EH 0–100 nM

SMILES: O=C(Nc1ccc(O)c2ccccc12)NC1CCCCC1 [XIIa]
- Effect of EH on fluorescence of the naphthyl derivative (in words): appearance of a new peak and a clear enhancement of fluorescence
